Experimental data taken from PMC9944328 (Nature Communications, 2023).

System: SSTR2 mutants
Assay: SSTRs Gi-mediated cAMP inhibition, GloSensor, HEK293, 5 μM forskolin, 15 min room temperature (SSTR2 mutants)
Assay type: cell-based, human
Conditions: for Fold of WT: Gi signaling EC50
Method: The levels of the intracellular 3′, 5′-cyclic AMP (cAMP) were measured by the GloSensor cAMP assay (Promega) as described in the previous studies[28],[41] which has been widely used. The human full-length SSTRs and mutants were cloned into the pcDNA3.1+ vector with a HA signal sequence followed by a Flag tag at the N-terminus. HEK293 cells (ATCC, CRL-1573) were seeded into 6-well microplates at a density of 1.0 × 10^6 cells/well and cultured for 24 h at 37 °C with 5% CO2. Cells were then co-transfected with SSTR wild-type or mutants and GloSensor plasmids. After 24 h of transfection, the cells were dissociated with TrypLE™ Express Enzyme (1X) (Thermo Fisher Scientific) and collected by centrifugation at 500 × g for 5 min. Then the collected cells were suspended in Hank’s balanced salt solution [HBSS (Thermo Fisher Scientific)] supplemented with […] (YEASEN), and then the suspension cells were seeded into 96-well plates with 90 μl/well. After incubating at room temperature for 40 min, 5 μM forskolin and ligands diluted in HBSS were added to each well and the plates were incubated at room temperature for 15 min. […] were measured using the Synergy H1 microplate reader (BioTek) and the data presented are means of at least three independent experiments.

[1] = Gi signaling, SSTR2 D295(7.36)A, n=3
[2] = Gi signaling, SSTR2 F127(3.37)A, n=3
[3] = Gi signaling, SSTR2 F208(5.38)A, n=3
[4] = Gi signaling, SSTR2 F265(6.44)A, n=3
[5] = Gi signaling, SSTR2 F294(7.35)A, n=3
[6] = Gi signaling, SSTR2 I130(3.40)A, n=3
[7] = Gi signaling, SSTR2 I195(45.52)A, n=3
[8] = Gi signaling, SSTR2 I284ECL3A, n=3
[9] = Gi signaling, SSTR2 K291(7.32)A, n=3
[10] = Gi signaling, SSTR2 L99(2.60)A, n=3
[11] = Gi signaling, SSTR2 N276(6.55)A, n=3
[12] = Gi signaling, SSTR2 P220(5.50)A, n=3
[13] = Gi signaling, SSTR2 Q102(2.63)A, n=3
[14] = Gi signaling, SSTR2 T194(45.51)A, n=3
[15] = Gi signaling, SSTR2 V103(2.64)A, n=3
[16] = Gi signaling, SSTR2 W269(6.48)A, n=3
[17] = Gi signaling, SSTR2 Y50(1.39)A, n=3
[18] = Gi signaling, SSTR2 Y205(5.35)A, n=3
[19] = Gi signaling, SSTR2 Y302(7.43)A, n=3

Compound: N#Cc1cccc(-c2ccc3ncc(-c4cc(F)cc(F)c4)c(N4CCC(N)CC4)c3c2)c1O [paltusotine]
- Fold of WT (SSTR2 Y50(1.39)A): 1.90
- Fold of WT (SSTR2 Y205(5.35)A): 0.26
- Fold of WT (SSTR2 Y302(7.43)A): 6.27
- EC50 [1]: 2.46 ± 1.67 nM
- Emax [1]: 107.80±3.11 %WT
- EC50 [2]: 1.02 ± 1.29 nM
- Emax [2]: 107.70±2.32 %WT
- EC50 [3]: 64.2 ± 2.53 nM
- Emax [3]: 91.78±2.89 %WT
- EC50 [4]: 11.9 ± 1.45 nM
- Emax [4]: 113.70±4.57 %WT
- EC50 (Gi signaling, SSTR2 F272A, n=3): 63.1 ± 4.1 nM
- Emax (Gi signaling, SSTR2 F272A, n=3): 57.21±2.64 %WT
- EC50 [5]: 2.64 ± 1.26 nM
- Emax [5]: 100.30±10.53 %WT
- EC50 [6]: 19 ± 2.64 nM
- Emax [6]: 116.50±4.76 %WT
- EC50 [7]: 83.4 ± 1.65 nM
- Emax [7]: 106.20±8.71 %WT
- EC50 [8]: 1.22 nM
- Emax [8]: 113.80±5.04 %WT
- EC50 [9]: 5.22 ± 8.67 nM
- Emax [9]: 97.49±6.65 %WT
- EC50 [10]: 17.1 ± 5.16 nM
- Emax [10]: 107.80±2.34 %WT
- EC50 [11]: 1.65 ± 3.51 nM
- Emax [11]: 89.08±4.63 %WT
- EC50 [12]: 3.22 ± 1.38 nM
- Emax [12]: 116.00±5.23 %WT
- EC50 [13]: 31 ± 6.59 nM
- Emax [13]: 97.26±5.45 %WT
- EC50 [14]: 97.7 ± 2.2 nM
- Emax [14]: 85.51±3.13 %WT
- EC50 [15]: 33 ± 2.87 nM
- Emax [15]: 87.33±6.38 %WT
- EC50 [16]: 0.44 nM
- Emax [16]: 98.94±12.38 %WT
- EC50 [17]: 3.6 ± 6.86 nM
- Emax [17]: 106.10±0.90 %WT
- EC50 [18]: 0.48 nM
- Emax [18]: 98.71±2.78 %WT
- EC50 [19]: 11.8 ± 3.12 nM
- Emax [19]: 55.80±2.34 %WT
- EC50 (I195A, run 1, best-fit): 83.4 nM
- LogEC50 (I195A, run 1, best-fit): -7.079
- EC50 (I195A, run 2, best-fit): 112 nM
- LogEC50 (I195A, run 2, best-fit): -6.952
- EC50 (I195A, run 3, best-fit): 54.8 nM
- LogEC50 (I195A, run 3, best-fit): -7.261
- Bottom (best-fit) (I195M, run 1): 2.531
- EC50 (I195M, run 1): 8.24 nM
- LogEC50 (I195M, run 1): -8.084
- Span (best-fit) (I195M, run 1): 94.08
- Top (best-fit) (I195M, run 1): 96.61
- Bottom (best-fit) (I195M, run 2): -2.367
- EC50 (I195M, run 2): 4.64 nM
- LogEC50 (I195M, run 2): -8.333
- Span (best-fit) (I195M, run 2): 106.3
- Top (best-fit) (I195M, run 2): 103.9
- EC50 (I284A, run 1, best-fit): 1.25 nM
- LogEC50 (I284A, run 1, best-fit): -8.902
- EC50 (I284A, run 2, best-fit): 1.14 nM
- LogEC50 (I284A, run 2, best-fit): -8.945
- EC50 (I284A, run 3, best-fit): 1.28 nM
- LogEC50 (I284A, run 3, best-fit): -8.894
- Bottom (best-fit value), cAMP inhibition (K291A-1 (run 1)): 1.006
- LogEC50 (best-fit value), cAMP inhibition (K291A-1 (run 1)): -8.362
- Span (best-fit value), cAMP inhibition (K291A-1 (run 1)): 92.81
- Top (best-fit value), cAMP inhibition (K291A-1 (run 1)): 93.82
- Bottom (best-fit value), cAMP inhibition (K291A-2 (run 2)): -4.234
- LogEC50 (best-fit value), cAMP inhibition (K291A-2 (run 2)): -8.83
- Span (best-fit value), cAMP inhibition (K291A-2 (run 2)): 114.6
- Top (best-fit value), cAMP inhibition (K291A-2 (run 2)): 110.4
- Bottom (best-fit value), cAMP inhibition (K291A-3 (run 3)): -10.93
- LogEC50 (best-fit value), cAMP inhibition (K291A-3 (run 3)): -8.158
- Span (best-fit value), cAMP inhibition (K291A-3 (run 3)): 99.18
- Top (best-fit value), cAMP inhibition (K291A-3 (run 3)): 88.26
- EC50 (L99A, run 1, best-fit): 6.78 nM
- LogEC50 (L99A, run 1, best-fit): -8.169
- EC50 (L99A, run 2, best-fit): 22.1 nM
- LogEC50 (L99A, run 2, best-fit): -7.655
- EC50 (L99A, run 3, best-fit): 22.4 nM
- LogEC50 (L99A, run 3, best-fit): -7.65
- Bottom (best-fit value), cAMP inhibition (N276A-1 (run 1)): -4.414
- LogEC50 (best-fit value), cAMP inhibition (N276A-1 (run 1)): -9.003
- Span (best-fit value), cAMP inhibition (N276A-1 (run 1)): 102.7
- Top (best-fit value), cAMP inhibition (N276A-1 (run 1)): 98.25
- Bottom (best-fit value), cAMP inhibition (N276A-2 (run 2)): -3.382
- LogEC50 (best-fit value), cAMP inhibition (N276A-2 (run 2)): -8.659
- Span (best-fit value), cAMP inhibition (N276A-2 (run 2)): 88.97
- Top (best-fit value), cAMP inhibition (N276A-2 (run 2)): 85.59
- Bottom (best-fit value), cAMP inhibition (N276A-3 (run 3)): -1.142
- LogEC50 (best-fit value), cAMP inhibition (N276A-3 (run 3)): -8.752
- Span (best-fit value), cAMP inhibition (N276A-3 (run 3)): 84.55
- Top (best-fit value), cAMP inhibition (N276A-3 (run 3)): 83.41
- Bottom (best-fit value) (P220A-1 (run 1)): 6.519
- LogEC50 (best-fit value) (P220A-1 (run 1)): -8.456
- Span (best-fit value) (P220A-1 (run 1)): 112
- Top (best-fit value) (P220A-1 (run 1)): 118.5
- Bottom (best-fit value) (P220A-2 (run 2)): 4.552
- LogEC50 (best-fit value) (P220A-2 (run 2)): -8.51
